Key:
[1] = system: GST; test: Glutathione S-transferase (GST) assay in treated cells; type: cell-based, rat; details: for enhancement of GST activity: 48 h
Procedure: FIG. 4. Effect of DBZIM and TDBZIM on GPx, CAT, SOD and GST. DBZIM affected (a) GPx activity and (c) CAT activity in a dosage-dependent manner. TDBZIM suppressed (b) GPx activity and (d) CAT activity. (e) DBZIM and (f) TDBZIM had little effect on SOD activity. (g) DBZIM induced GST activity. HSC T6 cells were treated with compounds of various concentrations for 48 h, and homogenized by sonication (60% frequency for 30 s) in PBS (pH 7.4, 1 mM of EDTA) for GPx, GST and CAT assays, or in 20 mM of HEPES buffer containing 1 mM of EGTA, 210 mM of mannitol and 70 mM of sucrose (pH 7.2) for SOD assay. Enzyme activity was normalized against total protein. DBZIM was dissolved in DMSO, and TDBZIM was dissolved in H2O. The data were presented as mean and SEM, N=6, *^aP<0.05, *^bP<0.01, *^cP<0.005, and *^dP<0.0005, when compared to the vehicle control.
The activity of phase II anti-oxidant enzyme, GST, was assayed using a kit from Cayman Chemical. Protein samples were harvested in PBS buffer containing 1 mM of EDTA, and the protein concentration was determined by BCA assay. Total GST (cytosolic and microsomal) activity was assayed by measuring the conjugation of 1-chloro-2,4-dinitobenzene (CDNB) with reduced GSH, and monitored by an increase in absorbance at 340 nm. GST activity was expressed as nmol/min/mg protein.

[2] = system: caspase 3, caspase 9 and PARP; test: Western blot of caspase-3, caspase-9 and PARP cleavage in HLE; type: cell-based, human; details: 72 h
Procedure: FIG. 38. IMSs, induce cleavage of caspase-3, caspase-9 and PARP. Western blot analysis for the effect of IBN 15, IBM 19, IBN 24, IBM 25, IBN 32 on the cleavage of caspase-3, Caspase-9 and PARP in HLE cells after 72 h exposure to indicated doses of IMSs.
The HLE cells were seeded at a density of 4×10^5 in 10 cm dish. After 24 h incubation, the cells were replaced with fresh 10% DMEM medium and then treated with 60 μM of IBN-15, 90 μM of IBN-19, 90 μM of IBN-24, 30 μM of IBN-25 and 20 μM of IBN 32 and 0.045% DMSO as control for 72 h. Whole cell lysates were prepared on day 3 with lysis buffer [125 mM Tris (pH 7.4), 2% Sodium dodecyl sulfate, 10% glycerol, 6M urea and a protease inhibitor cocktail (Sigma) and 0.02% Bromophenol blue]. The lysates were sonicated for 30 seconds and then heated for 5 mins at boiling temperature. The lysates were centrifuged at 13000 rpm for 10 mins and the protein concentration of each sample was estimated using the BCA protein assay. The lysates was then mixed with 5% 2-mercaptoethanol and stored at −80 C. For Western blotting, samples containing 50 μg of total cell lysate were loaded onto a SDS-PAGE and subjected to electrophoresis. Proteins were transferred to a nitrocellulose membrane and then blocked with 5% non-fat dry milk in Tris buffer saline containing 0.1% Tween 20 for 60 min at 37 C. The membranes were probed with a primary antibody overnight at 4 C in TEST containing 5% Bovine serum albumin. Then the membrane was incubated with horseradish peroxidase (HRP)-conjugated anti-rabbit or anti-mouse secondary antibodies (GE Health care, Chalfont St Giles, UK). Detection was performed with enhanced chemiluminescence (ECL) reagent (Amersham Arlington Heights, Ill.) according to the manufacturer's protocol. Rabbit polyclonal Phospho-p53 (Ser15, 20, 46, 392), anti-caspase-9, anti-caspase-3, anti-PARP antibodies were purchased from Cell Signaling Technology, Inc. (Beverly, Mass., USA). Antibodies against p53 and p21 were purchased from Santa Cruz Biotechnology (Santa Cruz, Calif., USA).

[3] = system: p53; test: Immunostaining and confocal microscopy of p53; type: cell-based, human; details: HLE, 48 h
Procedure: FIG. 39. IMSs-induced apoptosis was accompanied by accumulation of p53 in the nucleus. HLE cells were treated with the indicated dose of IBN 19 and IBN 24 for 48 h. The treated cells were fixed with 4% formaldehyde, immunostained with anti-p53 (green fluorescence) and DAPI (blue fluorescence), and analysed by confocal microscopy.
For immunostaining, HLE cells were seeded at a density of 1×10^4 in 8 well chamber slide. After 24 h incubation, the cells were replaced with 200 μl fresh 10% DMEM medium and then treated with 60 μM of IBN-15, 90 μM of IBN-19, 90 μM of IBN-24, 30 μM of IBN-25 and 20 μM of IBN-32 and 0.045% DMSO as control for 24 and 48 h. After washing, cells were fixed in 4% formaldehyde for 15 mins and permeabilized with 0.5% Triton X-100 in PBS for 10 mins. The cells were then blocked for 60 min in PBS containing 3% bovine serum albumin and then incubated for 1 h with a mouse antibody against nucleolin (MS-3, Santa Cruz; 1:100 in blocking buffer). After washing extensively with PBS, the cells were then incubated for 1 h at room temperature in dark with a FITC-conjugated antibody against mouse IgG (1:20 ilution). The slides were mounted with a VectaShield medium containing DAPI (Vector Laboratories, Burlingame, Calif.). Microscopy was performed with a Zeiss LSM 510 Meta (upright stand) confocal microscope.

Compound | enhancement of GST activity ([1]; 100 μM) [%] | enhancement of GST activity ([1]; 300 μM) [%] | activation and cleavage of caspase 3, caspase 9 and PARP [2] | p53 expression and nuclear accumulation [3] | effect on GST activity (references) ([1]; EGCG, NAC)
[Br-].c1ccc(Cn2cc[n+](Cc3ccccc3)c2)cc1 [DBZIM, 1,3-bisbenzylimidazolium bromide] | 22 | 32 | – | – | –
CC(=O)Oc1ccc(C[n+]2ccn(Cc3ccccc3)c2C)cc1.[Cl-] [IBN-19, 1-benzyl-3-(4-acetate-benzyl)-2-methyl-imidazolium chloride] | – | – | induced significant activation and cleavage | induced p53 expression and accumulation in the nucleus | –
Cc1ccc(C[n+]2ccn(Cc3ccccc3)c2)cc1.[Cl-] [IBN-24, 1-benzyl-3-(4-methylbenzyl)-imidazolium chloride] | – | – | induced significant activation and cleavage | induced p53 expression and accumulation in the nucleus | –
(−)-Epigallocatechin gallate [EGCG, reference compound] | – | – | – | – | did not have much affect

Source: patent publication US9072729B2, “Method for treating fibrosis and cancer with imidazolium and imidazolinium compounds” (Agency for Science, Technology and Research, priority 2008, dated 2015)
